One may read the Ki as the dissociation constant of the complex between target and ligand, obtained from inhibition or displacement. Low values mean higher affinity, high ones lower affinity.

In this experiment the target is T1, human Keap1 Kelch domain (Homo sapiens, UniProt Q14145).
T1 construct: human Keap1 Kelch domain (residue 321-609, UniProt Q14145); made in house; host or cells: Escherichia coli BL21 (DE3) pLysS, pRSET A vector
T1 sequence (Q14145 321-609): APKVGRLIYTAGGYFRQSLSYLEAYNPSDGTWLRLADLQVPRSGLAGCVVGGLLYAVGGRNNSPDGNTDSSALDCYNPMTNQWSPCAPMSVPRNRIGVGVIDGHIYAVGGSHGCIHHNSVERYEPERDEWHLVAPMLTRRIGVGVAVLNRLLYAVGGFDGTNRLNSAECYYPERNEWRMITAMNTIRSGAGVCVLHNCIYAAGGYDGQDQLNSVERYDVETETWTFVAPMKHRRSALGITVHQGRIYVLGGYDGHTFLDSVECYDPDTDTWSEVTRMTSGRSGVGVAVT
Kind of experiment: Heterologous competition fluorescence polarization (FP) binding assay, Cy5-Nrf2 peptide probe. The settings on record: mean ± SEM of at least 3 individual measurements; Keap1 Kelch 14 nM, Cy5-Nrf2 probe 3 nM, 4% DMSO. On the procedure: The assay was performed in a 1 × HBSTET buffer (10 mM HEPES, 150 mM NaCl, 0.005% Tween20, 3 mM ethylenediaminetetraacetic acid (EDTA), 1 mM TCEP, pH = 7.4) using black flat-bottom 384-well plates (Corning Life Sciences, NY), a volume of 30 µL/well, and a final DMSO concentration of 4% or 8%. The assay plate was spun down to ascertain proper mixing and removal of potential air bubbles and incubated for 10-15 min at room temperature before measuring the FP levels on a Safire2 plate reader (Tecan, Männedorf, Switzerland). The g-factor was adjusted at each experiment so that a series of three blank wells containing probe but no Keap1 Kelch defined the baseline FP value. The Cy5-Nrf2 probe was measured at excitation/emission values of 635:670 nm. The FP values were fitted to the one-site specific binding equation: Y = Bmax × X/(Kd + X), with Bmax being the maximal FP value, X the Keap1 Kelch concentration, and Y the variable FP values. The Kd values were derived from the resulting binding saturation curve as being equal to the Keap1 Kelch concentration, where the curve is half-saturated.
The affinities between nonfluorescent small molecule Keap1 inhibitors and Keap1 Kelch were determined as Ki values in a heterologous competition FP binding assay. […] FP values were fitted to the equation Y = Bottom + (Top- Bottom)/[1 + (10^HillSlope×(log IC50-X))], where X is the logarithmic value of compound concentration. Hereby, the IC50 value was obtained, which together with the Kd value and probe and Keap1 Kelch concentrations was used to calculate the theoretical competitive inhibition constant, the Ki value.^43 Ki values are shown as mean ± SEM (standard error of mean) if based on two or more individual measurements.
A general note: Fluorescence polarisation rises when a labelled molecule tumbles more slowly, as on binding a larger partner.
As to `CCOc1ccc(S(=O)(=O)N2Cc3ccc(C(NC(=O)c4cccc5c4-c4ccccc4C5=O)C(=O)O)cc3C2)cc1C#N` (stereo not shown) [Compound K50, 2-(2-((3-cyano-4-ethoxyphenyl)sulfonyl)isoindolin-5-yl)-2-(9-oxo-9H-fluorene-4-carboxamido)acetic acid], the Ki turned out to be 3600 ± 400 nM.

For `CCOc1ccc(S(=O)(=O)N2CCc3ccc(C(NC(=O)c4cccc5c4-c4ccccc4C54SCCS4)C(=O)O)cc3C2)cc1C#N` (stereo not shown) [Compound K38, 2-(2-((3-cyano-4-ethoxyphenyl)sulfonyl)-1,2,3,4-tetrahydroisoquinolin-7-yl)-2-(spiro[fluorene-9,2'-[1,3]dithiolane]-4-carboxamido)acetic acid], the affinity corresponds to a Ki of 170 ± 40 nM.

Turning to `CCOc1ccc(S(=O)(=O)N2CCc3ccc(C(NC(=O)c4cccc5c4-c4ccccc4C5O)C(=O)O)cc3C2)cc1C#N` (stereo not shown) [Compound K32, 2-(2-((3-cyano-4-ethoxyphenyl)sulfonyl)-1,2,3,4-tetrahydroisoquinolin-7-yl)-2-(9-hydroxy-9H-fluorene-4-carboxamido)acetic acid], the affinity corresponds to a Ki of 590 ± 100 nM.

On to `O=C(O)CC(NC(=O)c1cccc2c1-c1ccccc1C2=O)c1ccc2c(c1)CN(S(=O)(=O)c1ccccc1)CC2` (stereo not shown) [Compound K46, 3-(9-oxo-9H-fluorene-4-carboxamido)-3-(2-(phenylsulfonyl)-1,2,3,4-tetrahydroisoquinolin-7-yl)propanoic acid], for which the Ki was 930 ± 210 nM.
